# Experimental data taken from patent US8604038B2, “Pyrrolidine derived beta 3 adrenergic receptor agonists” (Merck Sharp & Dohme Corp., priority 2009, dated 2013).
# pEC50: −log10 of the molar value.
# Biological target: T1, human β3 adrenergic receptor (Homo sapiens, UniProt P13945)
# T1 construct: expressed in transfected cells; host or cells: CHO (Chinese hamster ovary) cells, stably transfected
# Assay: Beta-3 agonist in vitro functional assay (cAMP production, LANCE, transfected CHO cells)
# Type: cell-based
# Settings: Table 1, CHO cells with cloned β3 receptor, ligands titrated 10^-10 M to 10^-5 M, read-out: Human β3 agonist functional activity
# Protocol: Functional Assay: For compounds in examples 1-50, cAMP production in response to ligand is measured according to Barton, et al. (1991, Agonist-induced desensitization of D2 dopamine receptors in human Y-79 retinoblastoma cells. Mol. Pharmacol. […]:650-658) modified as follows. The cAMP production is measured using a homogenous time-resolved fluorescence resonance energy transfer immunoassay (LANCE™, Perkin Elmer) according to the manufacture's instructions. Chinese hamster ovary (CHO) cells, stably transfected with the cloned β-adrenergic receptor (β1, β2 or β3) are harvested after 3 days of subculturing. Harvesting of cells is done with Enzyme-free Dissociation Media (Specialty Media). Cells are then counted and resuspended in assay buffer (Hank's Balanced salt solution supplemented with 5 mM HEPES, […]) containing a phosphodiesterase inhibitor (IBMX, 0.6 mM). The reaction is initiated by mixing 6,000 cells in 6 μL with 6 μL Alexa Fluor labeled cAMP antibody (LANCE™ kit) which is then added to an assay well containing 12 μL of compound (diluted in assay buffer to 2× final concentration). The reaction proceeds for 30 minutes at RT and is terminated by the addition of 24 ul detection buffer (LANCE™ kit). The assay plate is then incubated for 1 h at RT and time-resolved fluorescence measured on a Perkin Elmer Envision reader or equivalent. The unknown cAMP level is determined by comparing fluorescence levels to a cAMP standard curve.
# The non-selective, full agonist β-adrenergic ligand isoproterenol is used at all three receptors to determine maximal stimulation. The human β3 adrenergic receptor (AR) selective ligand (S)-N-[4-[2-[[2-hydroxy-3-(4-hydroxyphenoxy)propyl]amino]ethyl]-phenyl]-4-iodobenzenesulfonamide is used as a control in all assays. […] The EC50 is defined as the concentration of compound that gives 50% activation of its own maximum. Data are analyzed using Microsoft Excel and Graphpad Prism or an internally developed data analysis software package.
# The EC50 is defined as the concentration of compound that gives 50% activation of its own maximum. Functional antagonist assays are performed similar to described above; however, unknown ligands are titrated at β-adrenergic receptor subtypes 1 and 2 at a final concentration in the assay of 10^-12 M to 10^-5 M in the presence of 10^-9 M full agonist β-adrenergic ligand isoproterenol. The EC50 is defined as the concentration of compound that gives 50% inhibition of the full agonist response. Data are analyzed using Microsoft Excel and Graphpad Prism or an internally developed data analysis software package.
# T1 sequence (P13945 whole entry): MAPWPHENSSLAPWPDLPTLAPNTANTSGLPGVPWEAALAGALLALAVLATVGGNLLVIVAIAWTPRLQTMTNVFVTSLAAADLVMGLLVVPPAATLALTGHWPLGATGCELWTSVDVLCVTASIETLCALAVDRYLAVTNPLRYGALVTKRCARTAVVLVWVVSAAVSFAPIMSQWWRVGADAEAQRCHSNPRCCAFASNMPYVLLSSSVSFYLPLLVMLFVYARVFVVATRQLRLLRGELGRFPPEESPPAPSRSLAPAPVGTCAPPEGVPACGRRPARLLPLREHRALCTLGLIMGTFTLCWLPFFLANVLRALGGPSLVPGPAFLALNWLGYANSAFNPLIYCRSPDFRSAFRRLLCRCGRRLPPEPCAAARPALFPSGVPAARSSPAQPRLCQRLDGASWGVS
row,SMILES,pEC50
1,O=C(NCc1cccc(Cl)n1)c1ccc(C[C@@H]2CC[C@H]([C@H](O)c3ccccc3)N2)cc1 [Example 6],7.00 to 8.00
2,O=C(NCc1ccccn1)c1ccc(C[C@@H]2CC[C@H]([C@H](O)c3ccccc3)N2)cc1 [Example 2],7.00 to 8.00
3,Cc1cc(C2CC2)nc(CNC(=O)c2ccc(C[C@@H]3CC[C@H]([C@H](O)c4ccccc4)N3)cc2)n1 [Example 16],7.00 to 8.00
4,O=C(NCc1nc2ccncc2[nH]1)c1ccc(C[C@@H]2CC[C@H]([C@H](O)c3cccnc3)N2)cc1 [Example 39],7.00 to 8.00
5,Cc1cc(-c2ccccc2)nc(CNC(=O)c2ccc(C[C@@H]3CC[C@H]([C@H](O)c4ccccc4)N3)cc2)n1 [Example 22],7.00 to 8.00
6,O=C(NCc1nc(C(F)(F)F)cc(=O)[nH]1)c1ccc(C[C@@H]2CC[C@H]([C@H](O)c3ccccc3)N2)cc1 [Example 28],7.00 to 8.00
7,Cc1ccnc(CNC(=O)c2ccc(C[C@@H]3CC[C@H]([C@H](O)c4ccccc4)N3)cc2)n1 [Example 18],7.00 to 8.00
8,O=C(NCc1nc2ccncc2[nH]1)c1ccc(C[C@@H]2CC[C@H]([C@H](O)c3ccccc3)N2)cc1 [Example 38],8.00 to 9.00
9,Cc1nccnc1CNC(=O)c1ccc(C[C@@H]2CC[C@H]([C@H](O)c3ccccc3)N2)cc1 [Example 20],7.00 to 8.00
10,O=C(NCc1ncc(-c2ccccc2)cn1)c1ccc(C[C@@H]2CC[C@H]([C@H](O)c3ccccc3)N2)cc1 [Example 24],7.00 to 8.00
11,O=C(NCc1cc(Cl)ccn1)c1ccc(C[C@@H]2CC[C@H]([C@H](O)c3ccccc3)N2)cc1 [Example 5],7.00 to 8.00
12,O=C(NCc1ccncn1)c1ccc(C[C@@H]2CC[C@H]([C@H](O)c3ccccc3)N2)cc1 [Example 12],7.00 to 8.00
13,O=C(NCc1nc2ccccc2[nH]1)c1ccc(C[C@@H]2CC[C@H]([C@H](O)c3ccccc3)N2)cc1 [Example 34],7.00 to 8.00
14,Cc1cccnc1CNC(=O)c1ccc(C[C@@H]2CC[C@H]([C@H](O)c3ccccc3)N2)cc1 [Example 13],7.00 to 8.00
15,O=C(NCc1ccccc1-c1c[nH]cn1)c1ccc(C[C@@H]2CC[C@H]([C@H](O)c3ccccc3)N2)cc1 [Example 46],6.00 to 7.00
16,O=C(NCc1cc(-c2ccccc2)no1)c1ccc(C[C@@H]2CC[C@H]([C@H](O)c3cccnc3)N2)cc1 [Example 30],7.00 to 8.00
17,O=C(NCc1nc2cccnc2[nH]1)c1ccc(C[C@@H]2CC[C@H]([C@H](O)c3ccccc3)N2)cc1 [Example 37],7.00 to 8.00
18,O=C(NCc1nc2ccccc2s1)c1ccc(C[C@@H]2CC[C@H]([C@H](O)c3cccnc3)N2)cc1 [Example 41],7.00 to 8.00
19,Cn1c(CNC(=O)c2ccc(C[C@@H]3CC[C@H]([C@H](O)c4ccccc4)N3)cc2)nc2ccccc21 [Example 35],7.00 to 8.00
20,O=C(NCc1nccc(C(F)(F)F)n1)c1ccc(C[C@@H]2CC[C@H]([C@H](O)c3ccccc3)N2)cc1 [Example 14],7.00 to 8.00
21,O=C(NCc1ncccc1F)c1ccc(C[C@@H]2CC[C@H]([C@H](O)c3ccccc3)N2)cc1 [Example 4],7.00 to 8.00

# Same assay, conditions: Table 3, CHO cells with cloned β3 receptor, ligands titrated 10^-12 M to 10^-5 M, read-out: Human β3 agonist functional activity
row,SMILES,pEC50
1,CC(c1cccnc1)N(C)C(=O)c1ccc(C[C@@H]2CC[C@H]([C@H](O)c3ccccc3)N2)cc1 (stereo partly shown) [Example 128],8.00 to 9.00
2,CN(Cc1nccn1C)C(=O)c1ccc(C[C@@H]2CC[C@H]([C@H](O)c3ccccc3)N2)cc1 [Example 76],6.00 to 7.00
3,CCN(CCN)C(=O)c1ccc(C[C@@H]2CC[C@H]([C@H](O)c3ccccc3)N2)cc1 [Example 115],6.00 to 7.00
4,CN(Cc1cccnn1)C(=O)c1ccc(C[C@@H]2CC[C@H]([C@H](O)c3ccccc3)N2)cc1 [Example 55],6.00 to 7.00
5,CN(Cc1cccc2ncccc12)C(=O)c1ccc(C[C@@H]2CC[C@H]([C@H](O)c3ccccc3)N2)cc1 [Example 109],6.00 to 7.00
6,CCN(Cc1ccccn1)C(=O)c1ccc(C[C@@H]2CC[C@H]([C@H](O)c3ccccc3)N2)cc1 [Example 121],6.00 to 7.00
7,CN(Cc1cccnc1Cl)C(=O)c1ccc(C[C@@H]2CC[C@H]([C@H](O)c3ccccc3)N2)cc1 [Example 124],7.00 to 8.00
8,CN(Cc1ncc[nH]1)C(=O)c1ccc(C[C@@H]2CC[C@H]([C@H](O)c3ccccc3)N2)cc1 [Example 113],7.00 to 8.00
9,Cc1csc(CN(C)C(=O)c2ccc(C[C@@H]3CC[C@H]([C@H](O)c4ccccc4)N3)cc2)n1 [Example 123],6.00 to 7.00
10,CN(Cc1ccccn1)C(=O)c1ccc(C[C@@H]2CC[C@H]([C@H](O)c3ccccc3)N2)cc1 [Example 54],6.00 to 7.00
11,CN(Cc1ncn(C)n1)C(=O)c1ccc(C[C@@H]2CC[C@H]([C@H](O)c3ccccc3)N2)cc1 [Example 73],6.00 to 7.00
12,CC(C)c1noc(CN(C)C(=O)c2ccc(C[C@@H]3CC[C@H]([C@H](O)c4ccccc4)N3)cc2)n1 [Example 93],7.00 to 8.00
13,O=C(c1ccc(C[C@@H]2CC[C@H]([C@H](O)c3ccccc3)N2)cc1)N(CCO)Cc1ccccc1F [Example 87],8.00 to 9.00
14,CN(Cc1cscn1)C(=O)c1ccc(C[C@@H]2CC[C@H]([C@H](O)c3ccccc3)N2)cc1 [Example 108],6.00 to 7.00
15,Cc1cc2nc(CN(C)C(=O)c3ccc(C[C@@H]4CC[C@H]([C@H](O)c5ccccc5)N4)cc3)[nH]c2cc1C [Example 101],6.00 to 7.00
16,CN(Cc1cc(Br)ccn1)C(=O)c1ccc(C[C@@H]2CC[C@H]([C@H](O)c3ccccc3)N2)cc1 [Example 57],7.00 to 8.00
17,CN(Cc1ccncn1)C(=O)c1ccc(C[C@@H]2CC[C@H]([C@H](O)c3ccccc3)N2)cc1 [Example 79],6.00 to 7.00
18,Cc1csc(CCN(C)C(=O)c2ccc(C[C@@H]3CC[C@H]([C@H](O)c4ccccc4)N3)cc2)n1 [Example 88],7.00 to 8.00
19,CN(Cc1nc2ccccc2[nH]1)C(=O)c1ccc(C[C@@H]2CC[C@H]([C@H](O)c3ccccc3)N2)cc1 [Example 84],6.00 to 7.00
20,CN(CC1CCCO1)C(=O)c1ccc(C[C@@H]2CC[C@H]([C@H](O)c3ccccc3)N2)cc1 (stereo partly shown) [Example 127],6.00 to 7.00
21,CN(Cc1cnc2ccccc2n1)C(=O)c1ccc(C[C@@H]2CC[C@H]([C@H](O)c3ccccc3)N2)cc1 [Example 61],8.00 to 9.00
22,COCc1cc(CN(C)C(=O)c2ccc(C[C@@H]3CC[C@H]([C@H](O)c4ccccc4)N3)cc2)n[nH]1 [Example 90],> 9.00
23,CN(CCc1cccnc1)C(=O)c1ccc(C[C@@H]2CC[C@H]([C@H](O)c3ccccc3)N2)cc1 [Example 53],7.00 to 8.00
24,CN(Cc1nn(C)c(Cl)c1Cl)C(=O)c1ccc(C[C@@H]2CC[C@H]([C@H](O)c3ccccc3)N2)cc1 [Example 75],8.00 to 9.00
25,Cc1cc(CN(C)C(=O)c2ccc(C[C@@H]3CC[C@H]([C@H](O)c4ccccc4)N3)cc2)on1 [Example 82],7.00 to 8.00
26,Cc1cccc(CN(C)C(=O)c2ccc(C[C@@H]3CC[C@H]([C@H](O)c4ccccc4)N3)cc2)n1 [Example 67],7.00 to 8.00

# Same assay, conditions: given as a range, CHO cells with cloned β3 receptor, read-out: human Beta-3 agonist functional activity
row,SMILES,pEC50
1,"CN(Cc1cccnc1)C(=O)c1ccc(C[C@@H]2CC[C@H]([C@H](O)c3ccccc3)N2)cc1 [Example 51, 4-({(2S,5R)-5-[(R)-hydroxy(phenyl)methyl]pyrrolidin-2-yl}methyl)-N-methyl-N-(pyridine-3-ylmethyl)benzamide]",8.00 to 9.00
2,"CN(Cc1ccccc1F)C(=O)c1ccc(C[C@@H]2CC[C@H]([C@H](O)c3ccccc3)N2)cc1 [Example 135, N-(2-fluorobenzyl)-4-({(2S,5R)-5-[(R)-hydroxy(phenyl)methyl]pyrrolidin-2-yl}methyl)-N-methylbenzamide]",7.00 to 8.00
